For data set [1], the target named is T1, α3β4 AChRs (Homo sapiens, UniProt P30926+P32297).
T1 construct: expressed in transfected cells
In words: Acute activation, FLEXStation membrane potential dye, α3β4 cell line. The data set is classed as cell-based. The settings on record: α3β4. The protocol: (§1) The parental cell line used for transfections was tsA201, derived from the human embryonic kidney cell line (HEK) 293 [33]. […] The cell line permanently expressing α3β4 AChRs has been described, [34]. A stable cell line expressing functional α7 AChRs was prepared by initially transfecting the tsA201 cell line with cDNA for α7 and subsequently transfecting with cDNA for the AChR-selective chaperone, human RIC-3.
(§2) Responses to nicotinic agonists were determined using a FLEXStation microplate fluorometer (Molecular Devices, Sunnyvale, CA) as described. For cell lines expressing α4β2 and α3β4 AChRs, the cells were plated at 10^5 cells/ml (100 µl/well) in black-walled clear-bottom 96 well plates (Costar, Fisher Scientific, Pittsbugh, PA), and incubated for 48 hours prior to assaying responses to various nicotinic agonists. The α7/RIC-3 expressing cells were plated at 5×10^5/ml in black-walled clear-bottom 96 well BioCoat plates (BD Biosciences, Franklin Lakes, NJ) in the continued presence of VPA and PBA, with the addition of 5% human AB serum (Pel-Freez Biologicals, Rogers, AR) to further increase expression of α7 [35]. The cells were then grown for 24 hours prior to the assay.
(§3) To measure responses to various nicotinic agonists, 100 µl of a fluorescent dye which is sensitive to changes in membrane potential (Molecular Devices) was added to the wells. The dye was prepared according to the manufacturer’s instructions, with the addition of atropine (0.5 µM) to block muscarinic responses. The plates were then incubated at 37°C for one hour prior to the assay. Serial dilutions of agonists were then prepared in Hanks Balanced Salt Solution (HBSS) in V-shaped 96-well plates (Fisher Scientific Co, Pittsburgh, PA). Fluorescent responses were measured in the FLEX Station at 25°C, with an excitation wavelength of 530 nm and an emission wavelength of 565 nm. Various agonists (50 µl) were added after the first 20 seconds and responses were followed for 60–120 seconds.
(§4) Data were graphed using GraphPad Prism software. Non-linear models (sigmoidal dose-response with variable slope or two site competition) were used to fit the concentration response curves. The EC50 and IC50 were calculated from the curves. Kaleidagraph software was used to determine Hill slopes and standard errors of the EC50 and IC50.

Data set [2] addresses T2, (α4β2)2β2 AChRs (Homo sapiens, UniProt P17787+P43681).
T2 construct: expressed in transfected cells
Particulars: cited from earlier work.

For data set [3], the target named is T2, (α4β2)2β2 AChRs. In words: Sazetidine-A desensitization of α4β2 cell line enriched for (α4β2)2β2 by β2 transfection and nicotine. The class given is cell-based. Particulars: 6 h sazetidine-A, 3 µM and 100 µM ACh curves overlapped. From the text:
To determine which stoichiometry of α4β2 AChRs was affected by sazetidine-A, we performed short term transfection of β2 subunits into the α4β2 expressing cell line. To increase the expression of the higher sensitivity (α4β2)2β2 stoichiometry, the cell line expressing α4 and β2 was cotransfected with human β2 (pRc-CMV/Geneticin) using the FuGene6 transfection agent (Roche Diagnostics, Indianapolis, IN).

Data set [4] concerns the target T1, α3β4 AChRs. Put plainly: Chronic desensitization (16 h agonist, then ACh response) and calculated smoldering activation, α3β4 cell line. The data set is classed as cell-based. Particulars: α3β4: 1.0 mM ACh. As for the experimental part: (§5) To measure desensitization, plates were prepared as for agonist assays. Sixteen hours prior to the assay, serial dilutions of agonists, prepared in regular growth medium, were added to the plates. One hour before the assay, the membrane potential-sensitive fluorescent dye with 0.5 µM atropine was added to the wells. […] Each data point represents the average of peak values for individual dose response curves from 4–8 wells.
as §4
(§6) Responses for the three different AChRs are shown in Figures 3, 4, 5, 6, along with the dose response curves for activation (the same as shown in Figure 2). The range of concentrations at which both sustained activation and desensitization can occur (“smoldering activation”) was calculated by multiplying the acute response to agonists at each concentration by the fractional response remaining after desensitization.

Data set [5] addresses T3, α7 AChRs (Homo sapiens, UniProt P36544). In words: Acute activation, FLEXStation membrane potential dye, α7/RIC-3 cell line. Particulars: α7. The arrangement: expressed in transfected cells; grown in VPA and PBA. The class given is cell-based. The protocol:
as §1, §2, §3, §4

In data set [6] the target is T4, human α4β2 AChRs (Homo sapiens, UniProt P17787+P43681).
T4 construct: expressed in transfected cells
T4 sequence (P43681 29-627 limits assumed): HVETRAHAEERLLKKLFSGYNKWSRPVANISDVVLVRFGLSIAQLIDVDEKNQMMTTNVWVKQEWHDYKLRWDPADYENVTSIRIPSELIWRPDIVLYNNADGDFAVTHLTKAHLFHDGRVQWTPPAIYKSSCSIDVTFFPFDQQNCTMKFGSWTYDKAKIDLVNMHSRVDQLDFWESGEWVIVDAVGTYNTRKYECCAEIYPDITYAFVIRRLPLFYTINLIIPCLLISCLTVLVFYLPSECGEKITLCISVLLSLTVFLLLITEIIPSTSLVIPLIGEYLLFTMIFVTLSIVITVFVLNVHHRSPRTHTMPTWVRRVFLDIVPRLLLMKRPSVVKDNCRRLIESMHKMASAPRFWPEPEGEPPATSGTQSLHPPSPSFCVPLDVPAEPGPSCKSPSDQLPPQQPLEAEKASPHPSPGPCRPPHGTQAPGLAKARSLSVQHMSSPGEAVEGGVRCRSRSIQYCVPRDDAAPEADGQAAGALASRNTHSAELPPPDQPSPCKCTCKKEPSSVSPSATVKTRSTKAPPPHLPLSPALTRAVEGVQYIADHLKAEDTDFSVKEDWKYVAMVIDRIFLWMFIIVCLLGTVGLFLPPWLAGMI
T4 sequence (P17787 26-502): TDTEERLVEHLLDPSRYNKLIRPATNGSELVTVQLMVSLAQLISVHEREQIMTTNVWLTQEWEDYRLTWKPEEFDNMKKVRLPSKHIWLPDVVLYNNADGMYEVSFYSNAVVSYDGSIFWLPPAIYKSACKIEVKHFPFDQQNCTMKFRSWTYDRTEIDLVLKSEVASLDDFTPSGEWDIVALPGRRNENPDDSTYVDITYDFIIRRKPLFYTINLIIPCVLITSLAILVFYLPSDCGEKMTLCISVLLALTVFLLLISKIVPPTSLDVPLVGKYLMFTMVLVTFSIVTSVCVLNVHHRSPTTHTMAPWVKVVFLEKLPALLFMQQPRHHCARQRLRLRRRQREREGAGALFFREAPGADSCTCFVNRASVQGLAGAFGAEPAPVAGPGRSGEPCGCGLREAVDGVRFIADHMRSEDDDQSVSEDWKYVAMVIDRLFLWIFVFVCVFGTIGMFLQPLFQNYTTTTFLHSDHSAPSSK
Put plainly: Chronic desensitization (16 h agonist, then ACh response) and calculated smoldering activation, α4β2 cell line. The class given is cell-based. The settings on record: for IC50: overnight (16 h) agonist, first (more sensitive) component, read-out: Desensitization IC50; for Hill (desensitization): first component. The protocol:
as §5, §4, §6

For data set [7], the system named is (α4β2)2α4 AChRs. The settings on record: cited from earlier work.
Data set [8] addresses T3, α7 AChRs. In words: Chronic desensitization (16 h agonist, then ACh response) and calculated smoldering activation, α7 cell line. The class given is cell-based. The arrangement: expressed in transfected cells; grown in VPA and PBA. Particulars: α7: 10 µM ACh. The protocol:
as §5, §4, §6

On the set-up of data set [9]: method as in PMID 22899751. The settings on record: mice treated with 2 mg/kg; cited from earlier work.
The target of data set [10] is T4, human α4β2 AChRs. In words: Acute activation, FLEXStation membrane potential dye, α4β2 cell line. The data set is classed as cell-based. The protocol: as §1, §2, §3, §4
Data set [11] deals with T3, α7 AChRs. Particulars: α7, antagonist 10 µM applied after 10 minutes. As for the experimental part: (§7) Responses were monitored for 10 minutes, and then specific antagonists were added and responses recorded for another two minutes.
Data set [12] deals with T1, α3β4 AChRs. In words: Smoldering activation following acute desensitization, α3β4. The data set is classed as cell-based. The settings on record: α3β4, antagonist 10 µM applied after 10 minutes. The protocol: as §7
Setting [13] is: overnight (16 h) agonist, read-out: Desensitization IC50.

Where two headings read alike, the source gives them in different places.

T3 sequence (P36544 23-502): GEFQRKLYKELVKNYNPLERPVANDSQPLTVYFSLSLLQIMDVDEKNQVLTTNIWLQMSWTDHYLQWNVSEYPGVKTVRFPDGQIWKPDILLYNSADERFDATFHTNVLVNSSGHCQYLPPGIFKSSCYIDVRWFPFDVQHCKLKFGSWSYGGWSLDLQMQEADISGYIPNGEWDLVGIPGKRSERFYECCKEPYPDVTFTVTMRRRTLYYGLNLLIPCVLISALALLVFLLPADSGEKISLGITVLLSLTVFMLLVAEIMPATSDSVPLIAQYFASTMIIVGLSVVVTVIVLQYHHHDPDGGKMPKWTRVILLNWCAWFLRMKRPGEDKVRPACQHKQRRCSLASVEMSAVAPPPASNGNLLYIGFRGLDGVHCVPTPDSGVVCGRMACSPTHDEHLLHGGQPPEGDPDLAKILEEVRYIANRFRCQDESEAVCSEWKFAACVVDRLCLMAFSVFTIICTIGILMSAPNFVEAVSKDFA
T2 sequence (P43681 29-627 limits assumed): as the sequence (P43681 29-627 limits assumed) above
T2 sequence (P17787 26-502): as the sequence (P17787 26-502) above
T1 sequence (P32297 32-505): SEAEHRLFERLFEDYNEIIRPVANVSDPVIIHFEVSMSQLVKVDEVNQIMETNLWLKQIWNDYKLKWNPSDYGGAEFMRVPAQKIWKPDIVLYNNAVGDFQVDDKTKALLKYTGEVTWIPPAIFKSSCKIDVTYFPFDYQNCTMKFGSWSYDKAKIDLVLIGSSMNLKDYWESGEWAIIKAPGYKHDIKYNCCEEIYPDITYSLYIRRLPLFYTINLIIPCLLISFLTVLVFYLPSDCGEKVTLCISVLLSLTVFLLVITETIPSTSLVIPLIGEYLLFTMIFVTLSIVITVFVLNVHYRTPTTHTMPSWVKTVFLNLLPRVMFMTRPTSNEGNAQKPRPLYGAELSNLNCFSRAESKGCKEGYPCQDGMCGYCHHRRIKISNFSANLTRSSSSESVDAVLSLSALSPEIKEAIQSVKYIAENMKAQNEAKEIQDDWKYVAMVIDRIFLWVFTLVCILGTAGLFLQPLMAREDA
T1 sequence (P30926 22-498): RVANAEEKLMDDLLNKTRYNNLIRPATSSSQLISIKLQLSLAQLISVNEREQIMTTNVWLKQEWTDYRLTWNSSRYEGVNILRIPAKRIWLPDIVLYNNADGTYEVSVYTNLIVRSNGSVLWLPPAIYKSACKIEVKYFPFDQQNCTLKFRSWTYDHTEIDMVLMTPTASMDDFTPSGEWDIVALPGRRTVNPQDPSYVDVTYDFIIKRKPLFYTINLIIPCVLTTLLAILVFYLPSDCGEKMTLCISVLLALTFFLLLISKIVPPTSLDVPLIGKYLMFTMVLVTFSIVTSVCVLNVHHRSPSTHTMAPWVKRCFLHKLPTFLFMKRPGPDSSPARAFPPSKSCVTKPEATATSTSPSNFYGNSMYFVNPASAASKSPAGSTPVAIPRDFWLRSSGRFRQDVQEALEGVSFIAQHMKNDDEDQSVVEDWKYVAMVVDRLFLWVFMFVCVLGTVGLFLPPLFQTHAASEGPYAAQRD

For `OCCCCC#Cc1cncc(OC[C@@H]2CCN2)c1` [Sazetidine-A], the “Agonist type (full or partial)” value is given as “full agonist” in [1]; “full agonist” in [5]; “partial agonist” in data set [10] (α4β2, mixture of stoichiometries). Further, the “Efficacy (%) (relative to ACh)” value in [1] is 100%; in [5], 100%; in data set [10] (α4β2), 44%. Also, the “Hill (activation)” value in [1] was determined as 1.3; in data set [5], 1.6; in data set [10] (α4β2, higher sensitivity component or monophasic curve), 1.2. For the same compound, the EC50 – broadly, the concentration needed to bring the measured effect to its halfway point – worked out at 170 ± 30 nM in data set [1] (read-out: Activation EC50); 1200 ± 80 nM in [5] (read-out: Activation EC50); 2.3 ± 0.3 nM in data set [10] (α4β2 cell line, mixed stoichiometries, higher sensitivity component where two-site fit, else monophasic, read-out: Activation EC50). Besides, the Agonist type result is recorded as “full agonist” in data set [2] ((α4β2)2β2, Xenopus oocytes expressing human α4 and β2 subunits); “full agonist” in data set [2] ((α4β2)2β2, concatenated AChRs in Xenopus oocytes); “partial agonist with very low efficacy” in data set [7] ((α4β2)2α4, concatenated AChRs in Xenopus oocytes). In addition, in [3], the “Stoichiometry of α4β2 desensitized” value was “desensitizes only the (α4β2)2β2 stoichiometry”. The “Hill (desensitization)” value was −0.5 in data set [4], −0.9 in data set [6] (α4β2: 3 µM ACh), −0.6 in data set [6] (α4β2: 100 µM ACh) and −2.9 in data set [8]. The IC50 – broadly, the concentration that inhibits the measured activity by half – was 330 ± 100 nM in data set [4] (setting [13]), 0.48 ± 0.02 nM in data set [6] (α4β2: 3 µM ACh), 0.26 ± 0.2 nM in data set [6] (α4β2: 100 µM ACh) and 3500 ± 400 nM in data set [8] (setting [13]). Also, in data set [6] ((α4β2)2β2 AChRs, 3 µM ACh), the “Area of overlap of activation and desensitization curves centered at” value is listed as 1.5 nM. In addition, the “Extent of desensitization of α4β2 AChRs to ACh” value in data set [6] (prolonged exposure, up to high concentrations) was “full desensitization was not reached even at high concentrations”. Besides, the “Concentration from which the desensitization dose response curve shows a plateau” value in [6] (α4β2, assayed with 100 µM ACh) is “around 10 nM”. The “Intercept of Activation and Desensitization Curves” value in [6] (α4β2: 3 µM ACh ((α4β2)2β2 stoichiometry), centre of smoldering activation) was 0.0015 µM; in data set [6] (α4β2: 3 µM ACh ((α4β2)2β2 stoichiometry), centre of smoldering activation, listed as sazetidine-A) it was “around 0.0015 µM”; in data set [6] (α4β2: 100 µM ACh (both stoichiometries)) it was 0.002 µM; in [8] it was 1.5 µM. Further, the Activity in data set [7] ((α4β2)2α4, Xenopus oocytes expressing human α4 and β2 subunits) was 6%. For the same compound, in data set [7] ((α4β2)2α4 stoichiometry, concatenated AChRs in Xenopus oocytes), the Efficacy is recorded as under 1%. In addition, in [9], the Brain levels was 150 nM. For the same compound, the Serum levels in data set [9] was 1600 nM.
In the case of `CCN1C[C@]2(COC(=O)c3ccccc3N3C(=O)C[C@H](C)C3=O)CC[C@H](OC)[C@@]34[C@@H]5C[C@H]6[C@H](OC)[C@@H]5[C@](O)(C[C@@H]6OC)[C@@](O)([C@@H](OC)[C@H]23)[C@@H]14` [MLA, methyllycaconitine], the “Effect of antagonist on residual agonist response” value in data set [11] is reported as “abrogated”.
For the compound `CNC1(C)C2CCC(C2)C1(C)C` (stereo not shown) [MCA, mecamylamine], the “Effect of antagonist on sustained agonist response” value in data set [12] is on record as “abrogated”.

The values above are taken from article PMC3828267 (PLoS ONE, 2013).
